From patent US20240398817A1, “CARDIO- AND RENOSAFE ANTIDIABETIC THERAPY” (priority 2018, published 2024)

Tested on: patients with type 2 diabetes at high vascular risk
Experiment: Cardiovascular and Renal Outcomes Trial: linagliptin 5 mg once daily vs placebo on top of standard of care
Format: in vivo
Settings: for Hazard ratio for hospitalised heart failure: vs placebo
Description: The effect of linagliptin on cardiovascular risk in adult patients with type 2 diabetes mellitus and with increased CV risk evidenced by a history of established macrovascular or renal disease (e.g. as defined herein) was evaluated in a multi-center, multi-national, randomized, double-blind parallel group trial. The trial compared the risk of experiencing a major adverse cardiovascular event (MACE) between linagliptin and placebo when these were added to and used concomitantly with standard of care treatments for diabetes (HbA1c), cardiovascular risk factors and renal disease.
The primary endpoint in this trial was the time to first occurrence of three point (3P) MACE. A major adverse cardiac event was defined as a cardiovascular death or a nonfatal myocardial infarction (MI) or a nonfatal stroke. The statistical analysis plan tested for non-inferiority for the occurrence of (3P) MACE. […] The secondary endpoint was a renal composite, defined as renal death or sustained end stage renal disease or sustained decrease of 40% or more in eGFR.
Type 2 diabetes patient with insufficient glycemic control (naïve or pre-treated with any antidiabetic background medication, excluding treatment with GLP-1 receptor agonists, DPP-4inhibitors or SGLT-2 inhibitors if ≥consecutive 7 days, e.g. having HbA1c 6.5-10%), and high risk of cardiovascular events, e.g. defined by: • albuminuria (micro or macro) and previous macrovascular disease: e.g. defined according to Condition I as indicated below; • and/or • impaired renal function: e.g. as defined according to Condition II as indicated below;
Background and aims: People with type 2 diabetes (T2D) are at increased risk for hospitalization for heart failure (hHF), particularly in the setting of concomitant cardiovascular (CV) and/or kidney disease. […] Here we present analyses of HF outcomes with the DPP-4 inhibitor linagliptin (LINA) vs. placebo (PBO) from a Cardiovascular and Renal Outcomes Trial assessing cardiovascular safety and renal microvascular outcome in patients with type 2 diabetes at high vascular risk, a large CV outcomes trial that enrolled participants with T2D at high risk for hHF due to concomitant CV and/or chronic kidney disease. Materials and methods: People with T2D and concomitant CV and/or kidney disease were randomized to receive LINA 5 mg, or PBO once daily (1:1), on top of standard of care. All hHF, CV outcomes, and deaths were centrally adjudicated, with individual and composite HF-related outcomes analyses comparing LINA vs. placebo. Investigator-reported HF-related adverse events, whether or not confirmed by adjudication, were also analyzed. A Cox proportional hazards model adjusting for region and history of HF was used for analyses of first events. Recurrent hHF events were analyzed using a negative binomial model.
Methods: The present Cardiovascular and Renal Outcomes Trial randomized people with T2D and i) concomitant CV disease with UACR >30 mg/g or ii) prevalent CKD (i.e. GFR <45 ml/min/1.73m2 and/or UACR >200 mg/g) to receive the DPP-4 inhibitor linagliptin (5 mg) or placebo once daily in a double-blind fashion. The primary CV endpoint was 3P-MACE, with a key secondary kidney endpoint (adjudicated ESKD, renal death, or sustained ≥40% decrease in eGFR from baseline) and other renal outcomes (including albuminuria and eGFR slope) also assessed. Subgroups were assessed by baseline kidney function (eGFR ≥/<45 ml/min/1.73m2and eGFR ≥/<30, 45 or 60 ml/min/1.73m2).
Adults with type 2 diabetes, HbA1c 6.5-10.0% inclusive, and high CV risk were eligible for inclusion. […] Macrovascular disease eligibility criteria was based on documented and confirmed history of myocardial infarction, coronary artery disease, stroke, carotid artery disease, or peripheral artery disease. Participants with end-stage kidney disease (ESKD), defined as eGFR <15 or requiring maintenance dialysis, were excluded.

[1] = Duration of type 2 diabetes ≥10 years
[2] = Established macrovascular disease and albuminuria No
[3] = Established macrovascular disease and albuminuria Yes
[4] = Estimated glomerular filtration rate <30 mL/min/1.73 m^2
[5] = Estimated glomerular filtration rate ≥30 to <45 mL/min/1.73 m^2
[6] = Estimated glomerular filtration rate ≥45 to <60 mL/min/1.73 m^2
[7] = Estimated glomerular filtration rate ≥60 mL/min/1.73 m^2

## CC#CCn1c(N2CCC[C@@H](N)C2)nc2c1c(=O)n(Cc1nc(C)c3ccccc3n1)c(=O)n2C [Linagliptin, 1-[(4-methyl-quinazolin-2-yl)methyl]-3-methyl-7-(2-butyn-1-yl)-8-(3-(R)-amino-piperidin-1-yl)-xanthine]
[1]
  3-point MACE: patients with event/patients analyzed: 316/2277
  Key secondary kidney outcome: hazard ratio vs placebo: 0.97
  Key secondary kidney outcome: patients with event/patients analyzed: 230/2277
  Patients with event/patients analysed, hospitalised heart failure: 149/2277
  Hazard ratio for hospitalised heart failure: 0.89
[2]
  3-point MACE: hazard ratio vs placebo: 1.13
  3-point MACE: patients with event/patients analyzed: 198/1486
  Key secondary kidney outcome: hazard ratio vs placebo: 1.03
  Key secondary kidney outcome: patients with event/patients analyzed: 215/1486
  Patients with event/patients analysed, hospitalised heart failure: 96/1486
  Hazard ratio for hospitalised heart failure: 0.87
[3]
  3-point MACE: hazard ratio vs placebo: 0.94
  3-point MACE: patients with event/patients analyzed: 236/2008
  Key secondary kidney outcome: hazard ratio vs placebo: 1.11
  Key secondary kidney outcome: patients with event/patients analyzed: 112/2008
  Patients with event/patients analysed, hospitalised heart failure: 113/2008
  Hazard ratio for hospitalised heart failure: 0.93
Established renal disease No
  3-point MACE: hazard ratio vs placebo: 0.98
  3-point MACE: patients with event/patients analyzed: 120/1385
  Key secondary kidney outcome: hazard ratio vs placebo: 1.20
  Key secondary kidney outcome: patients with event/patients analyzed: 38/1385
  Patients with event/patients analysed, hospitalised heart failure: 47/1385
  Hazard ratio for hospitalised heart failure: 1.19
Established renal disease Yes
  3-point MACE: hazard ratio vs placebo: 1.04
  3-point MACE: patients with event/patients analyzed: 314/2109
  Key secondary kidney outcome: hazard ratio vs placebo: 1.00
  Key secondary kidney outcome: patients with event/patients analyzed: 289/2109
  Patients with event/patients analysed, hospitalised heart failure: 162/2109
  Hazard ratio for hospitalised heart failure: 0.84
[4]
  Patients with event/patients analysed, hospitalised heart failure: 59/516
  Hazard ratio for hospitalised heart failure: 0.94
[5]
  Patients with event/patients analysed, hospitalised heart failure: 76/994
  Hazard ratio for hospitalised heart failure: 0.85
[6]
  Patients with event/patients analysed, hospitalised heart failure: 38/690
  Hazard ratio for hospitalised heart failure: 1.06
[7]
  Patients with event/patients analysed, hospitalised heart failure: 36/1294
  Hazard ratio for hospitalised heart failure: 0.88
Ethnicity Hispanic/Latino
  3-point MACE: hazard ratio vs placebo: 1.13
  3-point MACE: patients with event/patients analyzed: 143/1227
  Key secondary kidney outcome: hazard ratio vs placebo: 1.10
  Key secondary kidney outcome: patients with event/patients analyzed: 156/1227
  Patients with event/patients analysed, hospitalised heart failure: 58/1227
  Hazard ratio for hospitalised heart failure: 0.96
Ethnicity Not Hispanic/Latino
  3-point MACE: hazard ratio vs placebo: 0.97
  3-point MACE: patients with event/patients analyzed: 291/2267
  Key secondary kidney outcome: hazard ratio vs placebo: 0.99
  Key secondary kidney outcome: patients with event/patients analyzed: 171/2267
  Patients with event/patients analysed, hospitalised heart failure: 151/2267
  Hazard ratio for hospitalised heart failure: 0.87
Gender Female
  3-point MACE: hazard ratio vs placebo: 0.96
  3-point MACE: patients with event/patients analyzed: 152/1346
  Key secondary kidney outcome: hazard ratio vs placebo: 0.92
  Key secondary kidney outcome: patients with event/patients analyzed: 117/1346
  Patients with event/patients analysed, hospitalised heart failure: 74/1346
  Hazard ratio for hospitalised heart failure: 0.97
Gender Male
  3-point MACE: hazard ratio vs placebo: 1.06
  3-point MACE: patients with event/patients analyzed: 282/2148
  Key secondary kidney outcome: hazard ratio vs placebo: 1.12
  Key secondary kidney outcome: patients with event/patients analyzed: 210/2148
  Patients with event/patients analysed, hospitalised heart failure: 135/2148
  Hazard ratio for hospitalised heart failure: 0.87
Glycated haemoglobin <8.0%
  Patients with event/patients analysed, hospitalised heart failure: 107/1915
  Hazard ratio for hospitalised heart failure: 0.78
Glycated haemoglobin ≥8.0%
  Patients with event/patients analysed, hospitalised heart failure: 102/1579
  Hazard ratio for hospitalised heart failure: 1.05
Glycated hemoglobin <8.0%
  3-point MACE: hazard ratio vs placebo: 0.90
  3-point MACE: patients with event/patients analyzed: 229/1915
  Key secondary kidney outcome: hazard ratio vs placebo: 1.13
  Key secondary kidney outcome: patients with event/patients analyzed: 186/1915
Glycated hemoglobin ≥8.0%
  3-point MACE: hazard ratio vs placebo: 1.20
  3-point MACE: patients with event/patients analyzed: 205/1579
  Key secondary kidney outcome: hazard ratio vs placebo: 0.94
  Key secondary kidney outcome: patients with event/patients analyzed: 141/1579
History of heart failure No
  3-point MACE: hazard ratio vs placebo: 1.02
  3-point MACE: patients with event/patients analyzed: 275/2542
  Key secondary kidney outcome: hazard ratio vs placebo: 1.07
  Key secondary kidney outcome: patients with event/patients analyzed: 252/2542
  Patients with event/patients analysed, hospitalised heart failure: 96/2542
  Hazard ratio for hospitalised heart failure: 0.92
History of heart failure Yes
  3-point MACE: hazard ratio vs placebo: 1.01
  3-point MACE: patients with event/patients analyzed: 159/952
  Key secondary kidney outcome: hazard ratio vs placebo: 0.95
  Key secondary kidney outcome: patients with event/patients analyzed: 75/952
  Patients with event/patients analysed, hospitalised heart failure: 113/952
